{
  "source": "patent US20260234215A1",
  "about": "“Anti-Inflammatory Bio-Active Collagen Hybridizing Peptides and Methods of Using Thereof” (3HELIX, INC., priority 2023, published 2026)",
  "tested_on": "Jurkat T-Cells (E6-1 from ATCC)",
  "assay": "In vitro T-cell activation/inhibition assay (anti-CD3/anti-CD28 stimulation, IL-2 ELISA)",
  "type": "cell-based, human",
  "conditions": "37° C., CHP 100 μM with gelatin 0.5 mg/mL",
  "experimental": "A particular in vitro activation assay was carried out to evaluate the effects that the anti-inflammatory bioactive LAIR-1 CHPs have on T-cells. Details regarding the experimental conditions for the T-cell assay with Jukat T-cells are depicted in FIG. 13. As shown, Jukat T-cells were incubated with activating antibodies against CD3 and CD28 receptors to initiate activation. […] T-cell activation was then assessed by ELISA for IL-2 secretion in media supernatant. Activated T-cells express high levels of IL-2.\nSecreted IL-2 was measured for the following conditions: negative control which were unactivated T cells; positive control T cells which received anti-CD3 and anti-CD28 antibodies; positive control t cells which received stimulating antibodies in the presence of soluble gelatin; and the CHP test condition which received stimulating antibodies in the presence of LAIR1-CHPs.\nFor the T-cell activation/inhibition experimental protocol, three monomeric CHPs (LAIR-1 HTm CHP1 [SEQ ID NO: 87, wherein x=4 and y=4], LAIR-1 HTm CHP2 [SEQ ID NO: 2, wherein x=4 and y=4], and LAIR-1 HTm CHP3 [SEQ ID NO: 106]) were tested for T-cell activation/inhibition. First, CHPs were incubated with the gelatin under test conditions for at least 24 hours at 37° C. The final gelatin concentration in the media for incubation was 0.5 mg/mL. […]",
  "data": [
    {"substance": "Biotin-GGG-(GPO)9 [LAIR-1 HTm CHP3]", "values": [
      {"measurement": "effect on IL 2 production compared to the gelatin positive control", "setting": "72 hours post-stimulation", "value": "did not have an effect"},
      {"measurement": "effect on IL 2 production compared to the gelatin positive control", "setting": "96 hours post-stimulation", "value": "did not have an effect"}
    ]}
  ]
}
